One assay deals with H460. In words: Cytotoxicity, propidium iodide assay, H460. The following applies: Homo sapiens, NCI-H460; Lung, H460, 48 hours treatment; read-out: IC50, C1b (H460). Type of assay: cell-based. The method, then:
(§1) The assay was designed as in the reference, Anticancer Drugs, 2002, 13, 1-8, the disclosure of which is incorporated by reference for the teaching of the assay.
(§2) Cells from cell lines as mentioned in the table given below were seeded at a density of 3000 cells/well in a white opaque 96-well plate. Following incubation at 37° C./5% CO2 for a period of 18-24 hours, the cells were treated with various concentrations (stock solution was prepared in DMSO and subsequent dilutions were made in media as per ATCC guidelines) of the compounds of Example 1-40 was for a period of 48 hours. At the end of treatment, the spent culture medium was discarded, the cells were washed with 1×PBS and 200 μl of 7 μg/ml propidium iodide was added to each well. The plates were frozen at −70° C. for at least 24 hours. For analysis, the plates were brought to RT, allowed to thaw and were read in PoleStar fluorimeter with the fluorescence setting. The percentage of viable cells in the non-treated set of wells was considered to be 100 and the percentage viability following treatment was calculated accordingly. IC50 values were calculated from graphs plotted using these percentages. Table 4 depicts the IC50 values of compounds of Example 1-40 in individual cell lines.
(§3) The abbreviations for the Cell Lines as used in Table 4 are: […]

For the next assay, the system named is PC3. In words: Cytotoxicity, propidium iodide assay, PC3. Type of assay: cell-based. The following applies: Homo sapiens, PC-3; Prostate, PC3, 48 hours treatment; read-out: IC50, C2a (PC3). The method, then:
as §1, §2, §3

Another assay concerns A2780. In words: Cytotoxicity, propidium iodide assay, A2780. The conditions noted are these: Homo sapiens; Ovarian, A2780, 48 hours treatment; read-out: IC50, C3a (A2780). Type of assay: cell-based. Here is the method: as §1, §2, §3
A further assay deals with OVCAR 3. In words: Cytotoxicity, propidium iodide assay, OVCAR 3. Type of assay: cell-based. The conditions noted are these: Homo sapiens; Ovarian, OVCAR 3, 48 hours treatment; read-out: IC50, C3b (OVCAR 3). Here is the method: as §1, §2, §3
The test system of the next assay is U 373. Description: Cytotoxicity, propidium iodide assay, U 373. Type of assay: cell-based. The conditions noted are these: Homo sapiens, U373 MG; Glioblastoma, U 373, 48 hours treatment; read-out: IC50, C7a (U 373). The method, then: as §1, §2, §3
The next assay relates to IL-6. Description: Human monocyte assay, LPS-stimulated IL-6 (ELISA). Type of assay: cell-based. The following applies: human monocytes, 1 μg/ml LPS, 5 hours. The method, then:
The assay was designed as in the reference, Physiol. Res., 2003, 52, 593-598, the disclosure of which is incorporated by reference for the teaching of the assay.
Peripheral blood mononuclear cells (hPBMC) were harvested from human blood and suspended in RPMI 1640 culture medium containing 10% FCS, 100 U/mL penicillin and […] streptomycin (assay medium). Monocytes in the hPBMCs were counted using a Coulter Counter following which the cells were resuspended at 2×10^5 monocytes/mL. A cell suspension containing 2×10^4 monocytes was aliquoted per well of a 96-well plate. Subsequently, the hPBMCs were incubated for 4-5 hours at 37° C. under 5% CO2 (During the incubation, the monocytes adhered to the bottom of 96-well plastic culture plate). Following the incubation, the non-adherent lymphocytes were washed with assay medium and the adherent monocytes re-fed with assay medium. After a 48-hour incubation period (37° C., 5% CO2), monocytes were pretreated with various concentrations of compounds of Example 1-40 (prepared in DMSO) or vehicle (0.5% DMSO) for 30 minutes and stimulated with 1 μg/ml LPS (Escherchia coli 0111:B4, Sigma Chemical Co., St. Louis, Mo.). The incubation was continued for 5 hours at 37° C., 5% CO2. Supernatants were harvested, assayed for IL-6 and TNF-α by ELISA as described by the manufacturer (BD Biosciences, USA). Dexamethasone (10 μM) was used as standard for this assay. The 50% inhibitory concentration (IC50) values were calculated by a nonlinear regression method. In all experiments, a parallel plate was run to ascertain the toxicity of compounds of Example 1-40. The toxicity was determined using the MTS assay as described in Am. J. Physiol. Cell Physiol., 2003, 285, C813-C822.
Background: In an ELISA, binding on a coated surface is turned into a signal by an enzyme label.

Another assay concerns the target T1, PI3Kα kinase (Homo sapiens, UniProt P42336).
T1 construct: purchased Millipore, USA
Description: PI3Kα assay (32P incorporation into phosphatidylinositol, TLC densitometry). The following applies: At 100 nM. Type of assay: biochemical. The method, then:
The assay was designed as in the reference, Cell, 2006, 125, 733-47 (Supplemental Data), the disclosure of which is incorporated by reference for the teaching of the assay.
The kinase reaction was carried out in a 25 μL volume in a 1.5 mL microcentrifuge tube. The reaction mixture consisted of kinase buffer (10 mM Hepes, pH 7.5, 50 mM MgCl2), 20 ng PI3Kα kinase (Millipore, USA), 12.5 μg phosphatidylinositol (PI), 10 μM ATP and 1 μCi ^32γ P dATP. Compounds of Example 1-40 were added at concentrations (stock solution was prepared in DMSO and subsequent dilutions were made in kinase buffer) as mentioned in the table. The reaction mixture was incubated at 30° C. for 20 minutes and was terminated by adding 1:1 mixture of MeOH and chloroform. The tube contents were mixed on a vortex mixer and centrifuged at 10000 rpm for 2 minutes. 10 μL of the organic (lower) phase was spotted on to a TLC plate (silica, mobile phase: n-propanol and 2 M glacial acetic acid in 65:35 ratio). The plates were dried and exposed to an X-ray film. The bands appearing as a result of ^32γ P incorporation in PI were quantitated using the QuantityOne (BioRad, USA) densitometry program. PI-103 (Calbiochem, USA) was used as a standard.

The test system of the next assay is A549. Description: Cytotoxicity, propidium iodide assay, A549. Type of assay: cell-based. The conditions noted are these: Homo sapiens; Lung, A549, 48 hours treatment; read-out: IC50, C1a (A549). Here is the method:
as §1, §2, §3

The test system of a further assay is HCT116. Description: Cytotoxicity, propidium iodide assay, HCT116. Type of assay: cell-based. The conditions noted are these: Homo sapiens, HCT-116; Colon, HCT116, 48 hours treatment; read-out: IC50, C4a (HCT116). The method, then:
as §1, §2, §3

For another assay, the system named is PANC 1. Description: Cytotoxicity, propidium iodide assay, PANC 1. Type of assay: cell-based. The following applies: Homo sapiens; Pancreatic, PANC 1, 48 hours treatment; read-out: IC50, C5a (PANC 1). Here is the method:
as §1, §2, §3

T1 sequence (P42336 whole entry): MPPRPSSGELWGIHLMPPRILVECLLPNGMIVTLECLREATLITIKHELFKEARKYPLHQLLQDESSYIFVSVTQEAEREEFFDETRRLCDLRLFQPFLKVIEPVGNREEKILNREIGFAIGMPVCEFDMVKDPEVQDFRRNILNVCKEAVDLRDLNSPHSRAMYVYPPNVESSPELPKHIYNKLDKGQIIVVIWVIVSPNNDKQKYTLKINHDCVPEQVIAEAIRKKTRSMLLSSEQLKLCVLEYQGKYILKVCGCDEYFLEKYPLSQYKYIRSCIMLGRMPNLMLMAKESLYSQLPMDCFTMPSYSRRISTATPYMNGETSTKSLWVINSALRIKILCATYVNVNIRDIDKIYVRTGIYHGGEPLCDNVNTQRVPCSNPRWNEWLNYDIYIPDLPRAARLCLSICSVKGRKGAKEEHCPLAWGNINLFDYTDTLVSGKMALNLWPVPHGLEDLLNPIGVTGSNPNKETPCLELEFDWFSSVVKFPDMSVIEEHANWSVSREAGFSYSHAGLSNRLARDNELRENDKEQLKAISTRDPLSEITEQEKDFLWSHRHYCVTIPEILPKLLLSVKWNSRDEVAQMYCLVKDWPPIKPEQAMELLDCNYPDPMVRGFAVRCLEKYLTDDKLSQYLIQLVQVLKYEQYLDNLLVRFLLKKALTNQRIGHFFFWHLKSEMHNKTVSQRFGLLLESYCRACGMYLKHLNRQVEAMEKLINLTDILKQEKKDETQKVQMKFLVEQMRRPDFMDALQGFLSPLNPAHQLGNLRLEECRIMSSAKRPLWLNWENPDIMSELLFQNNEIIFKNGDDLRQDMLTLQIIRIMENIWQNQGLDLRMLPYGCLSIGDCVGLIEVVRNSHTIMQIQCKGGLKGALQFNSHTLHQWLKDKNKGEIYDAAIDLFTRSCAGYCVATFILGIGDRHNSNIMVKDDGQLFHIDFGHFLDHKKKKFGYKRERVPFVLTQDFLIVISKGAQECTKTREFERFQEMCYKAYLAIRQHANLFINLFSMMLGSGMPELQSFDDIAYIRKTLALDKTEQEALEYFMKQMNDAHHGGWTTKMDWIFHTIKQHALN
T1 sequence (P27986 whole entry partner): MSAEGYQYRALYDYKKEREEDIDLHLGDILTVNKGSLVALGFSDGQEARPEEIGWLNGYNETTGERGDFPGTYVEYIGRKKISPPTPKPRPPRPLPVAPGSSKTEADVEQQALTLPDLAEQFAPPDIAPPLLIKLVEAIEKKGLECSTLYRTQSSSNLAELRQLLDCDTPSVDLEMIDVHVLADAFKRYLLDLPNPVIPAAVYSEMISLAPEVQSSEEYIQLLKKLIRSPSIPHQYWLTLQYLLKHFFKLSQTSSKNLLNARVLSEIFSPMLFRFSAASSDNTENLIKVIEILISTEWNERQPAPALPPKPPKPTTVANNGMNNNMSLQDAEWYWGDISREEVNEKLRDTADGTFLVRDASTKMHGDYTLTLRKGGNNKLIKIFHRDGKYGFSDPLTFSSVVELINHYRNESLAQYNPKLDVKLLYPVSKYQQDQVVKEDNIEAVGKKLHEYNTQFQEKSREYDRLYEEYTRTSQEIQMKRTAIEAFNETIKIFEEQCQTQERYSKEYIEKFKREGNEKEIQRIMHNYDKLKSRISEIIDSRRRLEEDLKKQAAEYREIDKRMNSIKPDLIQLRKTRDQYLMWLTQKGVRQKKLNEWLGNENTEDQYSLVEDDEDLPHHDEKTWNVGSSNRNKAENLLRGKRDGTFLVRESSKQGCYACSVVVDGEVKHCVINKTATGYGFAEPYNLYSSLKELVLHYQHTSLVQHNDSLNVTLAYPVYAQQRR

Consider `CC(C)(C#N)c1ccc(-n2c(=O)n(S(=O)(=O)c3ccc(OC(F)(F)F)cc3)c3cnc4ccc(Br)cc4c32)cc1` [Example 1, 2-(4-(8-Bromo-2-oxo-3-(4-(trifluoromethoxy)phenylsulfonyl)-2,3-dihydro-1H-imidazo[4,5-c]quinolin-1-yl)phenyl)-2-methylpropanenitrile], for which the IC50 (as a rule, the concentration at which inhibition is half-maximal) in the assay with H460 is 1000 to 3000 nM; with PC3 it was 1000 to 3000 nM; with A2780 it was not above 1000 nM; with OVCAR 3, 1000 to 3000 nM; with U 373, more than 3000 nM; in the assay on IL-6 it was 10000 to 30000 nM.

As to `CC(C)(C#N)c1ccc(-n2c(=O)n(S(=O)(=O)c3ccccc3)c3cnc4ccc(Br)cc4c32)cc1` [Example 7, 2-(4-(8-Bromo-2-oxo-3-(phenylsulfonyl)-2,3-dihydro-1H-imidazo[4,5-c]quinolin-1-yl)phenyl)-2-methylpropanenitrile], the inhibition (in general, the drop in the measured response relative to a control, in per cent) at 0.1 µM against PI3Kα kinase lay within 10 to 50%.

Compound `Cc1ccc(S(=O)(=O)n2c(=O)n(-c3ccc(C(C)(C)C#N)cc3)c3c4cc(Br)ccc4ncc32)cc1` [Example 8, 2-(4-(8-Bromo-2-oxo-3-tosyl-2,3-dihydro-1H-imidazo[4,5-c]quinolin-1-yl)phenyl)-2-methylpropanenitrile] gave an inhibition at 0.1 µM against PI3Kα kinase of 10 to 50%.

For `CC(C)(C#N)c1ccc(-n2c(=O)n(S(=O)(=O)c3cccs3)c3cnc4ccc(Br)cc4c32)cc1` [Example 9, 2-(4-(8-Bromo-2-oxo-3-(thiophen-2-ylsulfonyl)-2,3-dihydro-1H-imidazo[4,5-c]quinolin-1-yl)phenyl)-2-methylpropanenitrile], the IC50 with A549 was 1000 to 3000 nM; in the assay on A2780, not above 1000 nM; in the assay on HCT116, more than 3000 nM; with PANC 1, more than 3000 nM; with IL-6, 10000 to 30000 nM.

In the case of `CC(=O)c1ccc(S(=O)(=O)n2c(=O)n(-c3ccc(C(C)(C)C#N)cc3)c3c4cc(Br)ccc4ncc32)cc1` [Example 12, 2-(4-(3-(4-Acetylphenylsulfonyl)-8-bromo-2-oxo-2,3-dihydro-1H-imidazo[4,5-c]quinolin-1-yl)phenyl)-2-methylpropanenitrile], the IC50 is 1000 to 3000 nM in the assay on A549; 1000 to 3000 nM in the assay on H460; more than 3000 nM in the assay with PC3; 1000 to 3000 nM in the assay with A2780; more than 3000 nM in the assay with HCT116; more than 30000 nM with IL-6.

Compound `COc1cccc(S(=O)(=O)n2c(=O)n(-c3ccc(C(C)(C)C#N)cc3)c3c4cc(Br)ccc4ncc32)c1` [Example 14, 2-(4-(8-Bromo-3-(3-methoxyphenylsulfonyl)-2-oxo-2,3-dihydro-1H-imidazo[4,5-c]quinolin-1-yl)phenyl)-2-methylpropanenitrile] yielded an IC50 in the assay with IL-6 of 1000 to 10000 nM.

For `CC(C)(C#N)c1ccc(-n2c(=O)n(S(=O)(=O)c3ccccc3C#N)c3cnc4ccc(Cl)cc4c32)cc1` [Example 20, 2-(8-Chloro-1-(4-(2-cyanopropan-2-yl)phenyl)-2-oxo-1H-imidazo[4,5-c]quinolin-3(2H)-ylsulfonyl)benzonitrile], the inhibition at 0.1 µM against PI3Kα kinase lay in the range of 10 to 50%.

As to `Cc1cccc(S(=O)(=O)n2c(=O)n(-c3ccc(C(C)(C)C#N)cc3)c3c4cc(C)ccc4ncc32)c1` [Example 21, 2-Methyl-2-(4-(8-methyl-2-oxo-3-(m-tolylsulfonyl)-2,3-dihydro-1H-imidazo[4,5-c]quinolin-1-yl)phenyl)propanenitrile], the IC50 was more than 3000 nM in the assay with A549, more than 3000 nM in the assay with HCT116 and 1000 to 10000 nM in the assay on IL-6.

With `Cc1ccc2ncc3c(c2c1)n(-c1ccc(C(C)(C)C#N)cc1)c(=O)n3S(=O)(=O)c1cccc(F)c1` [Example 22, 2-(4-(3-(3-Fluorophenylsulfonyl)-8-methyl-2-oxo-2,3-dihydro-1H-imidazo[4,5-c]quinolin-1-yl)phenyl)-2-methylpropanenitrile], the figures for the IC50 in the assay on A549, with HCT116 and in the assay on IL-6 were more than 3000 nM, more than 3000 nM and 10000 to 30000 nM, respectively.

Take `Cc1ccc2ncc3c(c2c1)n(-c1ccc(C(C)(C)C#N)cc1)c(=O)n3S(=O)(=O)c1cc([N+](=O)[O-])ccc1C` [Example 23, 2-Methyl-2-(4-(8-methyl-3-(2-methyl-5-nitrophenylsulfonyl)-2-oxo-2,3-dihydro-1H-imidazo[4,5-c]quinolin-1-yl)phenyl)propanenitrile]: the IC50 in the assay with A549 and in the assay with HCT116 was more than 3000 nM throughout.

As to `Cc1ccc2ncc3c(c2c1)n(-c1ccc(C(C)(C)C#N)cc1)c(=O)n3S(=O)(=O)c1cccc2cccnc12` [Example 24, 2-Methyl-2-(4-(8-methyl-2-oxo-3-(quinolin-8-ylsulfonyl)-2,3-dihydro-1H-imidazo[4,5-c]quinolin-1-yl)phenyl)propanenitrile], the IC50 in the assay on H460, in the assay with PC3, in the assay on A2780 and in the assay on HCT116 was more than 3000 nM throughout.

Turning to `COc1ccc(NC(=O)n2c(=O)n(-c3ccc(C(C)(C)C#N)cc3)c3c4cc(Br)ccc4ncc32)cc1` [Example 31, 8-Bromo-1-(4-(2-cyanopropan-2-yl)phenyl)-N-(4-methoxyphenyl)-2-oxo-1H-imidazo[4,5-c]quinoline-3(2H)-carboxamide], the 50% inhibitory concentration (IC50) was 1000 to 3000 nM with A549, more than 3000 nM in the assay with A2780, more than 3000 nM with HCT116 and more than 3000 nM in the assay on PANC 1.

`CC(C)(C#N)c1ccc(-n2c(=O)n(C(=O)NCc3ccccc3)c3cnc4ccc(Br)cc4c32)cc1` [Example 32, N-benzyl-8-bromo-1-(4-(2-cyanopropan-2-yl)phenyl)-2-oxo-1H-imidazo[4,5-c]quinoline-3(2H)-carboxamide] displayed an inhibition at 0.1 µM against PI3Kα kinase of 10 to 50%. The same compound displayed an IC50 in the assay on IL-6 of more than 30000 nM.

As to `C/C=C/C(=O)n1c(=O)n(-c2ccc(C(C)(C)C#N)cc2)c2c3cc(C)ccc3ncc21` [Example 39, (E)-2-(4-(3-But-2-enoyl-8-methyl-2-oxo-2,3-dihydro-1H-imidazo[4,5-c]quinolin-1-yl)phenyl)-2-methylpropanenitrile], the figures for the IC50 in the assay on A549, in the assay on HCT116 and in the assay with IL-6 were more than 3000 nM, more than 3000 nM and not above 1000 nM, respectively.

The values above are taken from US8637670B2, “Imidazo [4,5-C]quinoline derivatives and their use in the treatment of tumors and/or inflammation” (Piramal Enterprises Limited, priority 2009, dated 2014).
